Consider 20 compounds from patent US20060045953A1 (priority 2004, published 2006).

The first test addresses T1, hT1R1/hT1R3 umami receptor (Homo sapiens, UniProt Q7RTX0+Q7RTX1).
T1 construct: expressed in transfected cells; host or cells: HEK293 derivative stably expressing Gα15, clone I-17, expression induced with mifepristone
T1 sequence (Q7RTX1 21-841): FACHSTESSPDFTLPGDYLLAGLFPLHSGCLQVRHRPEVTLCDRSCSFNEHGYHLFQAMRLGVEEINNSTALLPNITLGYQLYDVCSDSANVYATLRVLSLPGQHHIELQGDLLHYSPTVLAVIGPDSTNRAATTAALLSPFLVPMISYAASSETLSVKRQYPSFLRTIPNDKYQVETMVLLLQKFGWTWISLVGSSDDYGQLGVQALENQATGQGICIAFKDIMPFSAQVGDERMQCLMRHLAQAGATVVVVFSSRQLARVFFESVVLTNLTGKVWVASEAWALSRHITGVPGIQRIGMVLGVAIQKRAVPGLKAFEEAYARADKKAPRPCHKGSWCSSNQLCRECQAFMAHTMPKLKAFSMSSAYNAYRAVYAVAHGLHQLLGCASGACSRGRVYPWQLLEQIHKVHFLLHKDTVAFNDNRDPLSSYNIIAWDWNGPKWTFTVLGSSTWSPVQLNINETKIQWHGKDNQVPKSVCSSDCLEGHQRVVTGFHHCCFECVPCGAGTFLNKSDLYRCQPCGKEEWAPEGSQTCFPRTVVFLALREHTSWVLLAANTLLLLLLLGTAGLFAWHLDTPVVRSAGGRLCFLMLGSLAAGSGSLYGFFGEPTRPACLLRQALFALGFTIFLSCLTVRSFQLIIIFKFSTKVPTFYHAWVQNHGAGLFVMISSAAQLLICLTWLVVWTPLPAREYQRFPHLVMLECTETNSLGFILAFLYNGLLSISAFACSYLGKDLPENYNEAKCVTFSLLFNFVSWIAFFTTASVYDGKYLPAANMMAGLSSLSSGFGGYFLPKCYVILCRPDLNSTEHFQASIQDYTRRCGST
T1 sequence (Q7RTX0 21-852): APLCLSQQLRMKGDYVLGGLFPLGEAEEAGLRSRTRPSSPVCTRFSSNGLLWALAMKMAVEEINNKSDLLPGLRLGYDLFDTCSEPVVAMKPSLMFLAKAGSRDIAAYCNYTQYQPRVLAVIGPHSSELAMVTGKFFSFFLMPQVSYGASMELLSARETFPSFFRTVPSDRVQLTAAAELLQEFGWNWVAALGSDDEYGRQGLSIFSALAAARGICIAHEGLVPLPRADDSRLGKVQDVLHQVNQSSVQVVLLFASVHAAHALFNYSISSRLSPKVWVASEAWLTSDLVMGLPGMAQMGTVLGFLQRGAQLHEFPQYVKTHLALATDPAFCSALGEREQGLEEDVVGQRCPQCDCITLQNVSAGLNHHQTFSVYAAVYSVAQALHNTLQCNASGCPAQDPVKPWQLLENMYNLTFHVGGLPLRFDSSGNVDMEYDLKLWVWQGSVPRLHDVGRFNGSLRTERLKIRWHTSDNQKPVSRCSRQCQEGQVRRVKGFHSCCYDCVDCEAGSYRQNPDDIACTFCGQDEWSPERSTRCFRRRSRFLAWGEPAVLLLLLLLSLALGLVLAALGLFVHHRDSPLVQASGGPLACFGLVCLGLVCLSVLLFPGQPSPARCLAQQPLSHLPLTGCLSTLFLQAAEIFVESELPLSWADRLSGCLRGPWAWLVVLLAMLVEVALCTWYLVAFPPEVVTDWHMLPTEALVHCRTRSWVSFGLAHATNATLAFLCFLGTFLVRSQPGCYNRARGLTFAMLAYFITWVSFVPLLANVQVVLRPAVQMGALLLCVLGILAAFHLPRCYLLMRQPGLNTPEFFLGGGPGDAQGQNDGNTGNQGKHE
In words: In vitro hT1R1/hT1R3 umami taste receptor activation assay (FLIPR, dose response). Type of test: cell-based. Conditions: Table A, Umami Amides; read-out: Umami EC50. An excerpt: In order to identify new savory flavoring agents and enhancers, including compounds with savory agonist and enhancer activities (dual activity), the compounds of Formula (I) were screened in primary assays and secondary assays including compound dose response and enhancement assay. In a primary assay for potential ability to modulate umami taste, amide compounds of Formula (I) that can be either savory flavoring agents in their own right or flavor enhancers of MSG are identified and scores of their activities are given as percentage of the maximum MSG intensity (%). In compound dose response, an EC50 is calculated to reflect the potency of the compound as a savory agonist or enhancer.
An HEK293 cell line derivative (See e.g., Chandrashekar, et al., Cell (2000) 100: 703-711) which stably expresses Gα15 and hT1R1/hT1R3 under an inducible promoter (see WO 03/001876 A2) was used to identify compounds with savory tasting properties.
For dose-responses analysis, stimuli were presented in duplicates at 10 different concentrations ranging from 1.5 nM to 30 μM. Activities were normalized to the response obtained with 60 mM monosodium glutamate, a concentration that elicits maximum receptor response. […] Identical results were obtained when analyzing the dose-response data using commercially available software for non-linear regression analysis such as GraphPad PRISM (San Diego, Calif.).
With `CCCC(CCC)NC(=O)c1ccc(OC)c([N+](=O)[O-])c1` [Example A120, N-(heptan-4-yl)-4-methoxy-3-nitrobenzamide], the EC50 worked out at 80 nM.

Regarding `CCCCC(NC(=O)c1ccc(OC)c(Cl)c1)C(=O)OC` (centres unmarked) [Example A55, methyl 2-(3-chloro-4-methoxybenzamido)hexanoate], the EC50 stood at 120 nM.

Regarding `COc1ccc([C@@H](C)NC(=O)c2ccc(OC)c(Cl)c2)cc1` [Example A89, (R)-3-chloro-4-methoxy-N-(1-(4-methoxyphenyl)ethyl)benzamide], the EC50 came to 600 nM.

For the compound `CCOC(=O)[C@@H]1CCCC[C@H]1NC(=O)c1cc2cc(OC)ccc2o1` [Example A15, (1R,2R)-ethyl 2-(5-methoxybenzofuran-2-carboxamido)cyclohexanecarboxylate], the EC50 stood at 1140 nM.

As for `Cc1ccc(C(=O)NC2CCCCC2C)cc1C` (centres unmarked) [Example A124, 3,4-dimethyl-N-(2-methylcyclohexyl)benzamide], the EC50 is 10 nM.

For `CCCC(CCC)NC(=O)c1cccc(C)c1N` [Example A127, 2-amino-N-(heptan-4-yl)-3-methylbenzamide], the EC50 is 140 nM.

For the compound `CCCC(CCC)NC(=O)c1cc(C)c(C)o1` [Example A31, N-(heptan-4-yl)-4,5-dimethylfuran-2-carboxamide], the EC50 came to 620 nM.

As to `COc1ccc(C(=O)NC2CCc3ccccc32)cc1Cl` (centres unmarked) [Example A106, 3-chloro-N-(2,3-dihydro-1H-inden-1-yl)-4-methoxybenzamide], the EC50 was 1390 nM.

Consider `COc1ccc(CNC(=O)c2ccccc2-c2ccccc2)c(OC)c1` [Example A104, Biphenyl-2-carboxylic acid 2,4-dimethoxy-benzylamide], for which the EC50 was 1370 nM.

Regarding `CCCC(NC(=O)c1ccc(OC)c(C)c1)C(C)C` (centres unmarked) [Example A59, 4-methoxy-3-methyl-N-(2-methylhexan-3-yl)benzamide], the EC50 is 200 nM.

Staying with this test, now noted: Table C, Umami Ureas; read-out: Umami EC50.
As for `CCCC(NC(=O)Nc1ccc2c(c1)OCO2)C(C)C` (centres unmarked) [Example C28, 1-(benzo[d][1,3]dioxol-5-yl)-3-(2-methylhexan-3-yl)urea], the EC50 is 570 nM.

With `CCOc1ccc(NC(=O)NC2CCCCC2C)cc1` (centres unmarked) [Example C10, 1-(4-ethoxyphenyl)-3-(2-methylcyclohexyl)urea], the EC50 was 1510 nM.

The same test, now with this note: Table D, Umami Acrylamides; read-out: Umami EC50.
`CCOc1ccc(/C=C/C(=O)N[C@@H](COC)CC(C)C)cc1` [Example D8, (R,E)-3-(4-ethoxyphenyl)-N-(1-methoxy-4-methylpentan-2-yl)acrylamide]: the EC50 was found to be 940 nM.

Staying with this test, now noted: read-out: EC50 for activation of a hT1R1/hT1R3 umami receptor expressed in an HEK293 cell line.
In the case of `CCCC(CCC)NC(=O)c1ccc2nc(C)oc2c1` [Example 46, 2-Methyl-benzooxazole-6-carboxylic acid (1-propyl-butyl)-amide], the EC50 came to 2100 nM.

As to `COc1ccc(C(=O)N[C@H](C)c2ccccc2)cc1Cl` [Example 63, (R)-3-chloro-4-methoxy-N-(1-phenylethyl)benzamide], the EC50 is 2500 nM.

As for `CCCC(COC(C)=O)NC(=O)c1ccc2c(c1)OCO2` (centres unmarked) [Example 14, 2-(benzo[d][1,3]dioxole-6-carboxamido)pentyl acetate], the EC50 turned out to be 11900 nM.

On to `COC(=O)[C@@H](CC(C)C)NC(=O)c1oc2ccccc2c1C` [Example 33, (R)-methyl 4-methyl-2-(3-methylbenzofuran-2-carboxamido)pentanoate], for which the EC50 stood at 1180 nM.

In the case of `COc1cccc(CNC(=O)C(=O)NCCc2ccccn2)c1OC` [Example 146, N-(2,3-Dimethoxybenzyl)-N′-(2-(pyridin-2-yl)ethyl)oxalamide], the EC50 amounted to 690 nM.

As to `CCCC(CCC)NC(=O)c1ccc2c(c1)OCCCO2` [Example 24, N-(heptan-4-yl)-3,4-dihydro-2H-benzo[b][1,4]dioxepine-7-carboxamide], the EC50 is 6400 nM.

With `CCCC(CCC)NC(=O)c1ccc2oc(C)nc2c1` [Example 40, 2-Methyl-benzooxazole-5-carboxylic acid (1-propyl-butyl)-amide], the EC50 stood at 330 nM.
